In patent publication US3970648A, “2-[2-(5-Nitro-2-furyl)vinyl]-4-(anilino)quinazolines” (Diamond Shamrock Corporation, priority 1974, dated 1976):
Positions of bridges follow the written chain, without caps; N, C: chain ends. Non-standard residues stand in square brackets, D forms with d. Residues, ends and D or L forms follow the SMILES beside them. *: point of attachment. Ileψ(thiazoline)Cys = CC[C@H](C)[C@H](N)C1=N[C@H](C(=O)*)CS1; dOrn = NCCC[C@@H](N)C(=O)O

What was measured:
Streptococcus agalactiae = test: Bactericide test, Streptococcus agalactiae (agar streak plate); assay type: cell-based; conditions: 100% inhibition at lower concentrations
From the text: (§1) Test formulations were examined for bactericidal and/or bacteriostatic activity against the test organisms shown in Tables A and B. These organisms were chosen as being representative of commercially important pathogens affecting animal agriculture. The antibiotic chlortetracycline was chosen as a positive control, since it has a broad spectrum of activity against a large number of organisms, and its activity can be used for comparative purposes.
(§2) Basic test formulations of the product of Examples I, II, III, and of chlortetracycline were prepared by dissolving 16 mg (0.016 g) in 2.0 ml of stock emulsifier solution (0.25% Triton X-155 in acetone by volume) and making each solution up to 50 ml with deionized water. The concentration of the test compound in the basic formulation was 320 ppm. Lower concentrations of the test compound were obtained by diluting the basic formulation with a 4% solution of the stock emulsifier in deionized water so that each dilution in the series differed only in test compound content.
(§3) Nutrient-tryptic soy agar (NTA) consisting of 2.0% Difco Bactoagar 0.8% nutrient broth (Difco), and 0.5% tryptic soy broth (Difco) was prepared and sterilized by autoclaving. A 2 ml aliquot of each test formulation was added to 8 ml of molten NTA. This mixture was then plated in a sterile polystyrene petri dish (100 × 15 mm). After the agar was set, suspensions of each of the test organisms were simultaneously streaked onto the surface of the agar. The inoculated plates were incubated for 48 hr at 28°C. The inhibition of growth of each organism was rated by visual comparison with the organism developing on non-treated agar. Growth inhibition reported as per cent control was rated in three categories as follows: 0% control, growth equivalent to that on non-treated agar; 50% control, sparse development and separated colonies; 100% control, no visible growth or development of colonies.

[1] = tested on: Erysipelothrix rhusiopathiae; test: Bactericide test, Erysipelothrix rhusiopathiae (agar streak plate); assay type: cell-based; conditions: 100% inhibition at lower concentrations
From the text: as §1, §2, §3

Salmonella gallinarum = test: Bactericide test, Salmonella gallinarum (agar streak plate); assay type: cell-based; conditions: Salmonella enterica, GALLINARUM, read-out: % Control In Vitro Growth
From the text: as §1, §2, §3
(§4) Test formulations of the product of Example IV were examined for bactericidal and/or bacteriostatic activity against the test organisms shown in Table B using the Bactericide Test described in Example V. The inhibition of organism growth with each diluted test formulation was rated visually by comparison with the organism developing on a non-treated control agar plate. Growth inhibition reported as per cent control was rated in three categories as follows: 0% control, growth equivalent to that on non-treated agar; 50% control is sparse development and separated colonies; and 100% control, development of individual colonies was not apparent.

Salmonella cholerasuis = test: Bactericide test, Salmonella cholerasuis (agar streak plate); assay type: cell-based; conditions: Salmonella, read-out: % Control In Vitro Growth
From the text: as §1, §2, §3, §4

[2] = tested on: Bordetella bronchiseptica; test: Bactericide test, Bordetella bronchiseptica (agar streak plate); assay type: cell-based; conditions: 100% inhibition at lower concentrations
From the text: as §1, §2, §3

Streptococcus group E = test: Bactericide test, Streptococcus group E (agar streak plate); assay type: cell-based; conditions: 100% inhibition at lower concentrations
From the text: as §1, §2, §3

Vibrio coli = test: Bactericide test, Vibrio coli (agar streak plate); assay type: cell-based; conditions: 100% inhibition at lower concentrations
From the text: as §1, §2, §3

Streptococcus faecalis = test: Bactericide test, Streptococcus faecalis (agar streak plate); assay type: cell-based; conditions: 100% inhibition at lower concentrations
From the text: as §1, §2, §3, §4

[3] = Growth promotion in chicks at 25 g/T, Example X (Table IV); assay type: in vivo, broiler cross chicks
From the text: (§5) This example compares growth promotion activity of the product of Example I with other growth promotants at a concentration of 25 g/T in the Basal Ration described in Example VII. The other growth promotants include the product described in Example I of U.S. Pat. No. 3,542,784 -- Burch and quinoxaline-1,4-dioxide. Day old broiler cross chicks were weight equalized into groups of eight chicks each, and four replicates of eight chicks each were fed the experimental rations over a 4 week period.

[4] = Growth promotion in chicks, Example XI (Table V); assay type: in vivo, broiler cross chicks; conditions: for feed efficiency (in words) / growth rate (in words): 25 g/T; for Average 4 Week Performance: Feed Efficiency / Average 4 Week Performance: Gain / Improved Response Over Basal Ration: Feed Efficiency / Improved Response Over Basal Ration: Gain: 25 g/T in basal ration, 4 weeks
From the text: as §5
The growth promotion tests described in Example X were repeated with the exception that five replicates of eight chicks each were fed the formulations described in Table V for 4 weeks.

[5] = Growth promotion and feed efficiency in chicks, Example VII (Table I); assay type: in vivo, broiler cross chicks; conditions: bacitracin 4 g/T alone in basal ration (negative control); 4 weeks
From the text: One hundred 20 day-old broiler cross chicks were weight equalized into 15 groups of eight chicks each and placed in battery brooders. The 40 chick treatment groups (five replicates) were fed the one of the three rations described below for a 4 week period. Weekly measurements of body weights and feed consumption were made by replicate, and these measurements used to calculate weight gain and feed efficiency.
The commercial type broiler starter basal ration which was used in this study was designated as the Basal Ration, and had the following composition:
The preceding basal ration was mixed with bacitracin at a level of 4 g/T as the only growth stimulant to simulate commercial practice. This mixture was designated as the Basal Ration + Bacitracin (4 g/T) and constituted the negative control in this study.
A second ration was prepared by fortifying the Basal Ration + bacitracin described above with the Product from Example I above at a level of 200 g/T, and was designated as Basal Ration + Bacitracin + Product of Example I (200 g/T). A third ration was prepared by fortifying the Basal Ration + bacitracin described above with chlortetracycline (CTC) at a level of 200 g/T, and was designated as Basal Ration + Bacitracin + Chlortetracycline (200 g/T). Chlortetracycline served as the positive control in this test because it had shown strong growth promotion in numerous previous tests at this therapeutic level.
The commercial value of the product of Example I is indicated by the fact that these significant responses were obtained in addition to the growth stimulation provided by the presence of bacitracin in the ration. It is important to note that the negative controls in this example and in Examples VIII and X which follow were characterized by rapid rates of growth. This high plane of growth and feed efficiency performance on the part of the negative controls makes the responses to the test compounds all the more meaningful.
The term "growth promotion" is used herein to describe the beneficial effect of a compound in eliciting a more rapid rate of weight gain when compared to the weight gain of control animals not fed the compound. "Feed efficiency" is a term regularly used in animal husbandry and is a measure of the pounds of feed required to produce a pound of gain in the weight of the animal. A lower mathmatical value for feed efficiency reflects improved performance. […] In this case, as in the case of the weight gain (fifth column), an improved performance is indicated by a higher positive number.

[6] = Growth promotion in chicks at low feed levels, Example VIII (Table II); assay type: in vivo, broiler cross chicks; conditions: 4 g/T in basal ration; 4 weeks
From the text: Day old broiler cross chicks were weight equalized into groups of eight chicks each and were placed in battery brooders. The 32 chick treatment groups (four replicates) were fed one of the five rations described below for a 4 week period. Weekly measurements of body weights and feed consumption were made by replicate, and these measurements used to calculate weight gain and feed efficiency.
The basal ration was the basal ration used in Example VII above. The remaining five rations were obtained by mixing the indicated quantities of bacitracin (4 g/T), chlortetracycline (10 g/T), product of Example I (10 g/T), and product of Example III of U.S. Pat. No. 3,542,784 -- Burch (10 g/T) as growth promotants with the basal ration.

[7] = 25 g/T in basal ration, 4 weeks

## O=[N+]([O-])c1ccc(C=Cc2nc(Nc3ccccc3)c3ccccc3n2)o1 [Example IV, 2-[2-(5-nitro-2-furyl)vinyl]-4-anilinoquinazoline]
Streptococcus agalactiae
  effectiveness compared with chlortetracycline (in words): considerably more effective
[1]
  effectiveness compared with chlortetracycline (in words): considerably more effective
Salmonella gallinarum; 0.007 ppm
  inhibition of growth at 0.007 ppm: 0%
Salmonella gallinarum; 0.01 ppm
  inhibition of growth at 0.01 ppm: 0%
Salmonella gallinarum; 0.03 ppm
  inhibition of growth at 0.03 ppm: 0%
Salmonella gallinarum; 0.06 ppm
  inhibition of growth at 0.06 ppm: 0%
Salmonella gallinarum; 0.125 ppm
  inhibition of growth at 0.125 ppm: 0%
Salmonella gallinarum; 0.25 ppm
  inhibition of growth at 0.25 ppm: 100%
Salmonella gallinarum; 0.5 ppm
  inhibition of growth at 0.5 ppm: 100%
Salmonella gallinarum; 1 ppm
  inhibition of growth at 1 ppm: 100%
Salmonella gallinarum; 2 ppm
  inhibition of growth at 2 ppm: 100%
Salmonella gallinarum; 4 ppm
  inhibition of growth at 4 ppm: 100%
Salmonella cholerasuis; 0.007 ppm
  inhibition of growth at 0.007 ppm: 0%
Salmonella cholerasuis; 0.01 ppm
  inhibition of growth at 0.01 ppm: 0%
Salmonella cholerasuis; 0.03 ppm
  inhibition of growth at 0.03 ppm: 0%
Salmonella cholerasuis; 0.06 ppm
  inhibition of growth at 0.06 ppm: 0%
Salmonella cholerasuis; 0.125 ppm
  inhibition of growth at 0.125 ppm: 0%
Salmonella cholerasuis; 0.25 ppm
  inhibition of growth at 0.25 ppm: 0%
Salmonella cholerasuis; 0.5 ppm
  inhibition of growth at 0.5 ppm: 0%
Salmonella cholerasuis; 1 ppm
  inhibition of growth at 1 ppm: 50%
Salmonella cholerasuis; 2 ppm
  inhibition of growth at 2 ppm: 50%
Salmonella cholerasuis; 4 ppm
  inhibition of growth at 4 ppm: 50%
[2]
  effectiveness compared with chlortetracycline (in words): considerably more effective
Streptococcus group E
  effectiveness compared with chlortetracycline (in words): considerably more effective
Vibrio coli
  effectiveness compared with chlortetracycline (in words): considerably more effective
Streptococcus faecalis
  effectiveness compared with chlortetracycline (in words): considerably more effective

## [O-][n+]1cc[n+]([O-])c2ccccc21 [Quinoxaline-1,4-dioxide, quinoxaline-1,4-dioxide]
[3]; 25 g/T
  effect on feed efficiency (in words): did not have any apparent effect
  growth response (in words): did not have any apparent effect
[3]; [7]
  Average 4 Week Performance: Feed Efficiency: 1.550
  Average 4 Week Performance: Gain: 756.6 g
  Improved Response Over Basal Ration: Feed Efficiency: +0.1%
  Improved Response Over Basal Ration: Gain: -1.1%
[4]
  feed efficiency (in words): improvement in feed efficiency
  growth rate (in words): questionable effect on growth
  Average 4 Week Performance: Feed Efficiency: 1.709
  Average 4 Week Performance: Gain: 740.8 g
  Improved Response Over Basal Ration: Feed Efficiency: +5.2%
  Improved Response Over Basal Ration: Gain: +1.1%

## CC[C@H](C)[C@H](N)C1=N[C@H](C(=O)N[C@@H](CC(C)C)C(=O)N[C@H](CCC(=O)O)C(=O)N[C@H](C(=O)N[C@H]2CCCCNC(=O)[C@H](CC(N)=O)NC(=O)[C@@H](CC(=O)O)NC(=O)[C@H](Cc3cnc[nH]3)NC(=O)[C@@H](Cc3ccccc3)NC(=O)[C@H]([C@@H](C)CC)NC(=O)[C@@H](CCCN)NC2=O)[C@@H](C)CC)CS1 [Bacitracin] ({Ileψ(thiazoline)Cys}-L[dE]IK[dOrn]I[dF]H[dD]N; lactam 4-C)
[5]
  Average 4 Week Performance: Feed Efficiency: 1.721
  Average 4 Week Performance: Gain: 694.5 gms
[4]
  feed efficiency (in words): moderate improvements in feed efficiencies
  growth rate (in words): slight improvements in growth rates
  Average 4 Week Performance: Feed Efficiency: 1.746
  Average 4 Week Performance: Gain: 741.3 g
  Improved Response Over Basal Ration: Feed Efficiency: +3.1%
  Improved Response Over Basal Ration: Gain: +1.2%
[6]
  Average 4 Week Performance: Feed Efficiency: 1.739
  Average 4 Week Performance: Gain: 703.6 g
  Improved Response Over Basal Ration: Feed Efficiency: +1.2%
  Improved Response Over Basal Ration: Gain: -2.3%
